Laboratory results: the Deep4Chem optical property database
Values belong to the compound of their own block, whether it stands above or below them.

Test: solvent given as SMILES

absorption maximum (in ClC(Cl)Cl): 409 nm
SMILES: CCCCCCN1C(=O)c2cccc3c(-c4ccc(-c5cccs5)s4)ccc(c23)C1=O

absorption maximum (in C1CCOC1): 318 nm
SMILES: C(=C1c2ccccc2CCc2ccccc21)c1ccc(-c2cc(-c3ccc(C=C4c5ccccc5CCc5ccccc54)cc3)cc(-c3ccc(C=C4c5ccccc5CCc5ccccc54)cc3)c2)cc1

absorption maximum (in C1CCOC1): 408 nm | absorption maximum (in CCCCCC): 402 nm | absorption maximum (in ClC(Cl)Cl): 404 nm | absorption maximum (in ClCCl): 414 nm
SMILES: CN1C(=O)c2cccc3c(-n4c5ccccc5c5ccccc54)ccc(c23)C1=O

absorption maximum (in CC#N): 420 nm | absorption maximum (in ClCCl): 426 nm
SMILES: COc1ccc(-c2cc3c(s2)c(C(C)=O)cc(=O)n3Cc2ccccc2)cc1

absorption maximum (in C1CCOC1): 340 nm
SMILES: O=C(c1ccc(C(=C(c2ccc(C(=O)c3ccc(-n4c5ccccc5c5ccccc54)cc3)cc2)c2ccc(C(=O)c3ccc(-n4c5ccccc5c5ccccc54)cc3)cc2)c2ccccc2)cc1)c1ccc(-n2c3ccccc3c3ccccc32)cc1

absorption maximum (in ClCCl): 300 nm
SMILES: O=P(c1ccccc1)(c1ccccc1)c1cccc(-n2c(-c3ccccc3P(=O)(c3ccccc3)c3ccccc3)nc3ccccc32)c1

absorption maximum (in ClC(Cl)Cl): 432 nm
SMILES: F[B-]1(F)OC(c2ccccc2)=Cc2c3ccccc3c3ccccc3[n+]21

absorption maximum (in C1COCCO1): 287 nm
SMILES: CCC(C)(C)c1ccc(-c2ccc(-c3ccccc3)cc2)cc1

absorption maximum (in CCO): 560 nm | absorption maximum (in ClCCl): 559 nm
SMILES: Cc1ccccc1-c1c2ccc(=[N+]3CCOCC3)cc-2oc2cc(N3CCCCC3)ccc12

absorption maximum (in C1CCCCC1): 302 nm | absorption maximum (in CC#N): 305 nm | absorption maximum (in CO): 301 nm | absorption maximum (in ClC(Cl)Cl): 308 nm | absorption maximum (in ClCCl): 385 nm | absorption maximum (in O): 305 nm
SMILES: c1ccc(-c2nc(-c3ccccc3)n3ccccc23)cc1

absorption maximum (in C1CCOC1): 573 nm | absorption maximum (in ClCCl): 561 nm
SMILES: CC1=C(C#Cc2ccccc2)C(C)=[N+]2C1=C(c1ccccc1)c1c(C)c(C#Cc3ccccc3)c(C)n1[B-]2(F)F

absorption maximum (in ClC(Cl)Cl): 377 nm
SMILES: c1ccc2c(-c3ccc(-n4c5ccccc5c5ccccc54)cc3)c3c(nc2c1)-c1cc2c(cc1CC3)-c1nc3ccccc3c(-c3ccc(-n4c5ccccc5c5ccccc54)cc3)c1CC2

absorption maximum (in CCO): 360 nm | absorption maximum (in O): 361 nm
SMILES: Oc1ccc(-c2cccs2)cc1-c1nc2ccccc2s1

absorption maximum (in ClCCl): 365 nm
SMILES: c1ccc(-n2c3ccccc3c3cc(-c4cccc(-n5c6cccnc6c6c7sc8ccccc8c7ccc65)c4)ccc32)cc1

absorption maximum (in ClC(Cl)Cl): 422 nm
SMILES: N#Cc1cc2ccc3cc(C#N)c4ccccc4c3c2c2ccccc12

absorption maximum (in ClCCl): 336 nm
SMILES: N#Cc1ccc(-n2c(-c3ccc(-c4ccc(-c5nc6c7ccccc7c7ccccc7c6n5-c5ccc(C#N)c6ccccc56)c5ccccc45)c4ccccc34)nc3c4ccccc4c4ccccc4c32)c2ccccc12

absorption maximum (in ClC(Cl)Cl): 483 nm
SMILES: COc1ccc(N(c2ccc(OC)cc2)c2ccc(-c3ccc(C=C(C#N)C#N)cc3)cc2)cc1

absorption maximum (in CO): 300 nm
SMILES: COc1cccc(-c2nc(-c3ccccc3)c(-c3ccccc3)[nH]2)c1

absorption maximum (in ClCCl): 299.5 nm
SMILES: CCCCCCCCCCn1c(-c2cc(-c3nc4ccccc4n3CCCCCCCCCC)cc(-c3nc4ccccc4n3CCCCCCCCCC)c2)nc2ccccc21

absorption maximum (in CO): 765 nm
SMILES: CC1(C)C(/C=C/C2=C(c3ccc(C(=O)O)cc3)C(=C/C=C3/N(CCCCS(=O)(=O)[O-])c4ccccc4C3(C)C)/CCC2)=[N+](CCCCS(=O)(=O)[O-])c2ccccc21

absorption maximum (in ClCCl): 435 nm
SMILES: C[Si]1(C)c2cc(-c3ccc(N(c4ccccc4)c4ccccc4)cc3)ccc2C=Cc2ccc(-c3ccc(N(c4ccccc4)c4ccccc4)cc3)cc21

absorption maximum (in C1COCCO1): 403 nm | absorption maximum (in CC#N): 400 nm | absorption maximum (in ClCCl): 408 nm
SMILES: Cc1nc2ccc(/C=C/c3ccc(N(C)C)cc3)cc2nc1-c1ccccc1

absorption maximum (in C1CCOC1): 345 nm
SMILES: N#Cc1c(N2CCCCC2)cc(-c2ccc(-c3ccccc3)s2)c2c1CCc1ccccc1-2

absorption maximum (in CO): 387 nm
SMILES: c1ccc(N(c2ccccc2)c2ccc(-c3ncc(-c4cccs4)s3)cc2)cc1

The next lines start with the compound.

SMILES: Cc1cccc2cc(-c3cc4cccc(C)c4oc3=O)oc12
absorption maximum (in CC#N): 369 nm | absorption maximum (in CCOC(C)=O): 370 nm | absorption maximum (in CS(C)=O): 373 nm | absorption maximum (in Cc1ccccc1): 376 nm | absorption maximum (in O): 367 nm

SMILES: CC1(C)CC(=O)c2c(F)c(F)c(F)c(F)c2N1
absorption maximum (in CC#N): 360 nm

SMILES: CN1/C(=C/C2=C([O-])C(=O)C2=C2C(=O)NC(=O)NC2=O)C(C)(C)c2ccccc21
absorption maximum (in CCO): 457 nm

SMILES: CCCCN(CCCC)c1ccc2c#cc3cc4c#cc5ccc(N(CCCC)CCCC)cc5c#cc#cc5cc(C(F)(F)F)ccc5c#cc4cc3c#cc3ccc(C(F)(F)F)cc3c#cc#cc2c1
absorption maximum (in ClCCl): 454 nm

SMILES: CC(C)(C)c1cc2c3c(c1)c1cc(C(C)(C)C)cc4c1n3B1c3c-2cccc3-c2cc(C(C)(C)C)cc3c5cc(C(C)(C)C)cc-4c5n1c23
absorption maximum (in C1CCOC1): 439 nm

SMILES: CC(C)(C)c1ccc2c(c1)c1cc(C(C)(C)C)ccc1n2-c1cc[n+]2c(c1)-c1ccccc1O[B-]2(F)F
absorption maximum (in Cc1ccccc1): 375 nm

SMILES: F[B-]1(F)OC(c2ccc(C(F)(F)F)cc2)=Cc2cc(Cl)nc[n+]21
absorption maximum (in C1CCOC1): 371 nm | absorption maximum (in CC#N): 368 nm | absorption maximum (in CCCCCC): 370 nm | absorption maximum (in Cc1ccccc1): 374 nm | absorption maximum (in ClC(Cl)Cl): 372 nm | absorption maximum (in ClCCl): 372 nm

SMILES: Cc1cc(C)c(B(c2cc3ccc4cccc5ccc(c2)c3c45)c2c(C)cc(C)cc2C)c(C)c1
absorption maximum (in Cc1ccccc1): 413 nm

SMILES: O=[N+]([O-])c1ccc([N+]2=Cc3ccc4c5c(ccc4c3O[B-]2(c2ccccc2)c2ccccc2)C=[N+](c2ccc([N+](=O)[O-])cc2)[B-](c2ccccc2)(c2ccccc2)O5)cc1
absorption maximum (in Cc1ccccc1): 536 nm | absorption maximum (in ClCCl): 541 nm

SMILES: COc1cc(OC)c2c(c1)C(=O)c1ccc(OC)cc1-2
absorption maximum (in C1CCCCC1): 422 nm | absorption maximum (in CC#N): 441 nm | absorption maximum (in CCO): 442 nm

SMILES: CC(C)(C)c1ccc2c(c1)c1cc(C(C)(C)C)ccc1n2-c1ccccc1-c1nc(-c2ccccc2-n2c3ccc(C(C)(C)C)cc3c3cc(C(C)(C)C)ccc32)nc(-c2ccccc2P(=O)(c2ccccc2)c2ccccc2)n1
absorption maximum (in C1CCOC1): 343.17 nm | absorption maximum (in CC#N): 340.7 nm | absorption maximum (in CC(C)=O): 343.17 nm | absorption maximum (in CN(C)C=O): 343.17 nm | absorption maximum (in Cc1ccccc1): 340.7 nm | absorption maximum (in ClC(Cl)Cl): 343.17 nm | absorption maximum (in ClCCl): 343.17 nm

SMILES: CCCCCCOC(=O)/C=C/C1=CC2=C(c3c(C)cc(C)cc3C)c3cc(/C=C/C(=O)OCCCCCC)cn3[B-](F)(F)[N+]2=C1
absorption maximum (in ClCCl): 579 nm

SMILES: CC(=O)c1ccc(/C=C/C=C/C2=NC3C(=O)NC(N)=NC3N2[C@H]2C[C@H](O)[C@@H](CO)O2)cc1 (stereo partly specified)
absorption maximum (in CC#N): 392 nm | absorption maximum (in CO): 388 nm

SMILES: COc1ccc(-c2cnc(/C=C/c3ccc(C#N)cc3)o2)cc1OC
absorption maximum (in ClCCl): 370 nm

SMILES: CN(C)c1ccc2nc(-c3ccc(C(=O)OC(C)(C)C)cc3)sc2c1
absorption maximum (in C1CCCCC1): 384 nm | absorption maximum (in CC#N): 390 nm | absorption maximum (in CC(C)O): 392 nm | absorption maximum (in CO): 393 nm | absorption maximum (in CS(C)=O): 403 nm | absorption maximum (in ClC(Cl)Cl): 392 nm | absorption maximum (in c1ccccc1): 392 nm

SMILES: Oc1cccc2ccccc12
absorption maximum (in C1CCCCC1): 303.49 nm

SMILES: C#CCOc1ccc(C2=[N+]3C(=Nc4c(-c5ccccc5)cc(-c5ccc(O)cc5)n4[B-]3(F)F)C(c3ccccc3)=C2)cc1
absorption maximum (in CO): 688 nm | absorption maximum (in Cc1ccccc1): 685 nm | absorption maximum (in ClC(Cl)Cl): 680 nm

SMILES: CCCCN(CCCC)c1ccc2c(c1)C#CC#Cc1cc(C(F)(F)F)ccc1C#Cc1cc(c3cc1C#Cc1ccc(N(CCCC)CCCC)cc1C#CC#Cc1cc(C(F)(F)F)ccc1C#C3)C#C2
absorption maximum (in ClCCl): 477 nm

SMILES: Cc1cc2c(o1)=CC1=C(C(F)(F)F)c3cc4oc(C)cc4n3[B-](F)(F)[N+]=21
absorption maximum (in ClC(Cl)Cl): 613 nm

SMILES: COC(=O)CCC(NC(=O)CCNc1cccc2ccccc12)C(=O)OC (stereo unspecified)
absorption maximum (in CCO): 330 nm

SMILES: CCOC(=O)c1c2c3c(ccc([N+](=O)[O-])c3c3cc4c(cc13)[Si](C)(C)O[Si]4(C)C)N(C)C2=O
absorption maximum (in CC#N): 376 nm

SMILES: FC(F)(F)C(F)(F)C(F)(F)C(F)(F)C(F)(F)C(F)(F)CCOc1nnc(Cl)nn1
absorption maximum (in ClCCl): 519 nm | absorption maximum (in OCC(F)(F)F): 519 nm

SMILES: O=c1cc(C(F)(F)F)c2cc3c4c(c2o1)CCCN4CCC3
absorption maximum (in C1CCCCC1): 393 nm | absorption maximum (in CC#N): 418 nm | absorption maximum (in CCO): 421 nm | absorption maximum (in CCOC(C)=O): 409 nm | absorption maximum (in OCC(O)CO): 434 nm

SMILES: Clc1nnc(Oc2ccc(N(c3ccc(Br)cc3)c3ccc(Br)cc3)cc2)nn1
absorption maximum (in ClCCl): 524 nm

SMILES: COc1ccc2ccc([O-])cc2c1
absorption maximum (in O): 337 nm

SMILES: CC1=C(c2cccs2)C(C)=[N+]2C1=C(c1ccc(OS(=O)(=O)c3ccc([N+](=O)[O-])cc3[N+](=O)[O-])cc1)c1c(C)c(-c3cccs3)c(C)n1[B-]2(F)F
absorption maximum (in CO): 526 nm | absorption maximum (in Cc1ccccc1): 535 nm | absorption maximum (in ClCCl): 533 nm

SMILES: CC1(C)c2ccccc2N(c2ccc(C(=O)/C=C(\O)c3ccc(N4c5ccccc5C(C)(C)c5ccccc54)cc3)cc2)c2ccccc21
absorption maximum (in Cc1ccccc1): 406 nm

SMILES: CCOC(=O)c1cc(C(=O)OCC)c2cc(C(=O)O)ccc2n1
absorption maximum (in CCO): 316 nm

SMILES: COc1cc(C=O)cc(-c2[nH]c(=O)n3c2-c2ccccc2C3=O)c1O
absorption maximum (in CC#N): 390 nm | absorption maximum (in CO): 398 nm | absorption maximum (in ClCCl): 390 nm

SMILES: F[B-]1(F)N(c2ccccc2)C=Cc2cccc[n+]21
absorption maximum (in C1CCCCC1): 442 nm | absorption maximum (in C1CCOC1): 425 nm | absorption maximum (in CC#N): 412 nm | absorption maximum (in CC(C)=O): 422 nm | absorption maximum (in CCO): 418 nm | absorption maximum (in CCOC(C)=O): 427 nm | absorption maximum (in CO): 417 nm | absorption maximum (in O): 396 nm

SMILES: C#Cc1cccc2ccccc12
absorption maximum (in C1CCCCC1): 310 nm | absorption maximum (in CC#N): 306 nm | absorption maximum (in CO): 309 nm | absorption maximum (in ClCCl): 312 nm

SMILES: CC(C)(C)NC1=CC2=c3cc(NC(C)(C)C)c4nc(C(F)(F)C(F)(F)C(F)(F)F)nc5c(NC(C)(C)C)cc(c3c54)C3=CC(NC(C)(C)C)=C4N=C(C(F)(F)C(F)(F)C(F)(F)F)N=C1C4C32 (stereo unspecified)
absorption maximum (in C1CCOC1): 646 nm
